Test results as given in US5786355A, “4,6-diarylpyrimidine derivatives and salts thereof” (Taiho Pharmaceutical Co., Ltd., priority 1995, dated 1998).

System: HUVEC (human umbilical vein endothelial cell)
Experiment: HUVEC growth inhibition (3H-thymidine uptake)
Type: cell-based
Details: 3000 cells per well, RPMI-1640 with ECGS, EGF and 2% serum, 48 hours + 17 hours with 3H-thymidine, control as 100%, read-out: IC50 (concentration showing a 50% growth inhibitory activity)
Description: To a 96-well microplate, HUVEC (human umbilical vein endothelial cell; product of Kurabo Industries Ltd.) was added in an amount of 3000 cells per well, followed by culturing in 200 μl of RPMI-1640 medium (Nissui Pharmaceutical Co., Ltd.) containing 10 μg/ml of ECGS (Endothelial Cell Growth Supplement; Collaborative Co., Ltd.), 3 ng/ml of EGF ([…]; product of Genzyme Co., Ltd.) and 2% fatal calf serum at 37° C. for 48 hours using 5% CO2. To each well, 0.1 μCi (3.7 KBq) of ^3 H-Tymidine was added, followed by culturing for 17 hours. Then, the cells were collected on a glass filter and washed with 5% trichloroacetic acid and ethanol. The radioactivity taken in was measured by a β-plate (Pharmacia Laboratories, Inc.). The concentration showing a 50% growth inhibitory activity (IC50) was calculated with a control as 100%.

Q: With `COc1cc(OC)c(-c2cc(-c3cc(OC)c(OC)cc3OC)nc(N(C)C)n2)cc1OC` [Compound 2] as the molecule, how does the IC50 read?
A: Its IC50 is 220 nM.

Q: Which IC50 does the source give for `COc1cc(OC)c(-c2cc(-c3cc(OC)c(OC)cc3OC)nc(N)n2)cc1OC` [Compound 3] here?
A: The IC50 was 250 nM.

Q: With `COc1cc(OC)c(-c2cc(-c3ccc(OCCN(C)C)cc3)nc(N(C)C)n2)cc1OC` [Compound 8] as the molecule, how does the IC50 read?
A: The IC50 was 1100 nM.

Q: For `CCN(CC)c1nc(-c2cc(OC)c(OC)cc2OC)cc(-c2cc(OC)c(OC)cc2OC)n1` [Compound 9], which IC50 is on record?
A: Its IC50 is 360 nM.

Q: For `CCN(CC)c1nc(-c2ccc(OC)cc2OC)cc(-c2cc(OC)c(OC)cc2OC)n1` [Compound 17], which IC50 is on record?
A: Its IC50 is 530 nM.

Q: With `CCN(CC)c1nc(-c2cc(OC)c(OC)c(OC)c2)cc(-c2cc(OC)c(OC)cc2OC)n1` [Compound 20, 2-diethylamino-4-(3,4,5-trimethoxyphenyl)-6-(2,4,5-trimethoxyphenyl)pyrimidine] as the molecule, how does the IC50 read?
A: The IC50 was 530 nM.

Q: For `COc1cc(OC)c(-c2cc(-c3cc(OC)c(O)c(OC)c3)nc(N(C)C)n2)cc1OC` [Compound 24], which IC50 is on record?
A: The IC50 was 210 nM.

Q: Which IC50 does the source give for `COc1cc(NS(C)(=O)=O)c(-c2cc(-c3cc(OC)c(OC)cc3OC)nc(N(C)C)n2)cc1OC` [Compound 27] here?
A: Its IC50 is 68 nM.

Q: With `COc1cc(OC)c(-c2cc(-c3nccs3)nc(N(C)C)n2)cc1OC` [Compound 30] as the molecule, how does the IC50 read?
A: The IC50 was 700 nM.

Q: Which IC50 does the source give for `COc1cc(OC)c(-c2cc(-c3cc(OC)c(OC)cc3OC)nc(NS(C)(=O)=O)n2)cc1OC` [Compound 31] here?
A: Its IC50 is 520 nM.

Q: For `CCN(CC)c1nc(-c2ccc(OCCN3CCCCC3)cc2)cc(-c2cc(OC)c(OC)cc2OC)n1` [Compound 41], which IC50 is on record?
A: The IC50 was 1700 nM.

Q: For `CCN(CC)c1nc(-c2ccc(OP(=O)(O)O)cc2)cc(-c2cc(OC)c(OC)cc2OC)n1` [Compound 43], which IC50 is on record?
A: Its IC50 is 330 nM.

System: not given
Experiment: not given
Details: J. INDIAN CHEM. SOC., 70, 266-267(1993); cited from earlier work

Q: Which antibacterial activity does the source give for `COc1ccc(-c2cc(-c3ccc(OC)c(OC)c3)nc(N)n2)c(OC)c1` [2-amino-4-(2,4-dimethoxyphenyl)-6-(3,4-dimethoxyphenyl)pyrimidine] here?
A: Its antibacterial activity is “no antibacterial activity”.
